Measured values as given in the NIST ThermoML archive (doi:10.1016/j.jct.2019.03.023).
“And” between values parts separate entries of the source, which are not always exact repeats. Identical values can stand only once.

Test: molar heat capacity at constant volume
Settings: Vacuum adiabatic calorimetry

CC(C)O [propan-2-ol]
Fluid (supercritical or subcritical phases)
Settings	molar heat capacity at constant volume
314.29 K, Mass density=329.2 kg/m3	177.46 J/K/mol
314.52 K, Mass density=329.2 kg/m3	182.81 J/K/mol
314.8 K, Mass density=329.2 kg/m3	184.67 J/K/mol
315.05 K, Mass density=329.2 kg/m3	181.49 J/K/mol
315.3 K, Mass density=329.2 kg/m3	177.88 J/K/mol
315.42 K, Mass density=329.2 kg/m3	176.26 J/K/mol
315.61 K, Mass density=329.2 kg/m3	174.88 J/K/mol
315.8 K, Mass density=329.2 kg/m3	178.6 J/K/mol
317.44 K, Mass density=697.69 kg/m3	170.85 J/K/mol
317.57 K, Mass density=697.69 kg/m3	172.41 J/K/mol
317.7 K, Mass density=697.69 kg/m3	172.71 J/K/mol
317.95 K, Mass density=697.69 kg/m3	168.15 J/K/mol
318.07 K, Mass density=697.69 kg/m3	168.15 J/K/mol
318.2 K, Mass density=697.69 kg/m3	171.69 J/K/mol
318.32 K, Mass density=697.69 kg/m3	171.33 J/K/mol
318.45 K, Mass density=697.69 kg/m3	173.98 J/K/mol
318.57 K, Mass density=697.69 kg/m3	170.25 J/K/mol
318.7 K, Mass density=697.69 kg/m3	175.24 J/K/mol
331.87 K, Mass density=697.69 kg/m3	192 J/K/mol
332.06 K, Mass density=697.69 kg/m3	191.34 J/K/mol
332.12 K, Mass density=697.69 kg/m3	189.48 J/K/mol
332.24 K, Mass density=697.69 kg/m3	188.82 J/K/mol
332.36 K, Mass density=697.69 kg/m3	187.74 J/K/mol
332.48 K, Mass density=697.69 kg/m3	189.96 J/K/mol
332.6 K, Mass density=697.69 kg/m3	190.26 J/K/mol
332.72 K, Mass density=697.69 kg/m3	187.74 J/K/mol
332.85 K, Mass density=697.69 kg/m3	192.36 J/K/mol
333.03 K, Mass density=697.69 kg/m3	188.7 J/K/mol
340.8 K, Mass density=697.69 kg/m3	195.19 J/K/mol
340.92 K, Mass density=697.69 kg/m3	192.6 J/K/mol
341.04 K, Mass density=697.69 kg/m3	196.99 J/K/mol
341.16 K, Mass density=697.69 kg/m3	193.33 J/K/mol
341.28 K, Mass density=697.69 kg/m3	197.83 J/K/mol
341.4 K, Mass density=697.69 kg/m3	196.15 J/K/mol
341.52 K, Mass density=697.69 kg/m3	194.89 J/K/mol
341.64 K, Mass density=697.69 kg/m3	195.13 J/K/mol
341.76 K, Mass density=697.69 kg/m3	196.21 J/K/mol
341.91 K, Mass density=329.2 kg/m3	203.12 J/K/mol
342.08 K, Mass density=329.2 kg/m3	202.22 J/K/mol
342.19 K, Mass density=329.2 kg/m3	203.54 J/K/mol
342.32 K, Mass density=329.2 kg/m3	207.27 J/K/mol
342.49 K, Mass density=329.2 kg/m3	201.32 J/K/mol
342.67 K, Mass density=329.2 kg/m3	203.72 J/K/mol
342.79 K, Mass density=329.2 kg/m3	202.76 J/K/mol
342.91 K, Mass density=329.2 kg/m3	201.62 J/K/mol
343.03 K, Mass density=329.2 kg/m3	204.08 J/K/mol
355.67 K, Mass density=697.69 kg/m3	207.33 J/K/mol
355.78 K, Mass density=697.69 kg/m3	211.29 J/K/mol
355.9 K, Mass density=697.69 kg/m3	211.9 J/K/mol
356.02 K, Mass density=697.69 kg/m3	209.49 J/K/mol
356.13 K, Mass density=697.69 kg/m3	211.11 J/K/mol
356.25 K, Mass density=697.69 kg/m3	212.68 J/K/mol
356.37 K, Mass density=697.69 kg/m3	211.77 J/K/mol
356.48 K, Mass density=697.69 kg/m3	211.96 J/K/mol
369.05 K, Mass density=329.2 kg/m3	225.9 J/K/mol
369.16 K, Mass density=329.2 kg/m3	220.01 J/K/mol
369.28 K, Mass density=329.2 kg/m3	231.31 J/K/mol
369.39 K, Mass density=329.2 kg/m3	222.83 J/K/mol
369.5 K, Mass density=329.2 kg/m3	225.96 J/K/mol
369.67 K, Mass density=329.2 kg/m3	223.55 J/K/mol
369.84 K, Mass density=329.2 kg/m3	221.75 J/K/mol
369.96 K, Mass density=329.2 kg/m3	221.03 J/K/mol
370.07 K, Mass density=329.2 kg/m3	219.47 J/K/mol
370.24 K, Mass density=697.69 kg/m3	222.11 J/K/mol
370.36 K, Mass density=697.69 kg/m3	222.41 J/K/mol
370.47 K, Mass density=697.69 kg/m3	220.43 J/K/mol
370.58 K, Mass density=697.69 kg/m3	219.77 J/K/mol
370.7 K, Mass density=697.69 kg/m3	222.05 J/K/mol
370.81 K, Mass density=697.69 kg/m3	222.29 J/K/mol
370.92 K, Mass density=697.69 kg/m3	220.61 J/K/mol
371.04 K, Mass density=697.69 kg/m3	221.57 J/K/mol
378.45 K, Mass density=697.69 kg/m3	221.99 J/K/mol
378.57 K, Mass density=697.69 kg/m3	220.67 J/K/mol
378.68 K, Mass density=697.69 kg/m3	223.19 J/K/mol
378.79 K, Mass density=697.69 kg/m3	223.37 J/K/mol
378.9 K, Mass density=697.69 kg/m3	220.97 J/K/mol
379.01 K, Mass density=697.69 kg/m3	222.41 J/K/mol
379.24 K, Mass density=697.69 kg/m3	222.71 J/K/mol
379.35 K, Mass density=697.69 kg/m3	221.33 J/K/mol
379.46 K, Mass density=697.69 kg/m3	221.99 J/K/mol
379.57 K, Mass density=697.69 kg/m3	220.55 J/K/mol
379.68 K, Mass density=697.69 kg/m3	222.53 J/K/mol
379.79 K, Mass density=697.69 kg/m3	221.81 J/K/mol
379.9 K, Mass density=697.69 kg/m3	222.53 J/K/mol
380.02 K, Mass density=697.69 kg/m3	224.03 J/K/mol
380.13 K, Mass density=697.69 kg/m3	223.07 J/K/mol
380.24 K, Mass density=697.69 kg/m3	222.05 J/K/mol
380.35 K, Mass density=697.69 kg/m3	223.97 J/K/mol and 182.81 J/K/mol
380.42 K, Mass density=697.69 kg/m3	185.51 J/K/mol
380.56 K, Mass density=697.69 kg/m3	185.69 J/K/mol
380.68 K, Mass density=697.69 kg/m3	187.44 J/K/mol

Settings	molar heat capacity at constant volume [J/K/mol]
380.35 K, Liquid	182.81
